Experimental data taken from US20220257552A1, “METHODS OF PRESCREENING AND TREATING BREAST CANCERS WITH SELECTIVE ANDROGEN RECEPTOR MODULATORS” (priority 2021, published 2022).

Columns and labels:
HCI-9 PDX = experiment: HCI-9 patient-derived xenograft in NSG mice; format: in vivo; details: Formula IX 10 mpk, enzalutamide 30 mpk p.o.
Protocol: All animal protocols were approved by The University of Tennessee Health Science Center (UTHSC) Institutional Animal Care and Use Research Committee. Xenograft experiments were performed as previously published (Narayanan et al. (2014) PLoS One 9, e103202). Briefly, 3 million MCF-7 cells were suspended in 0.05 ml MEM+10% FBS and 0.05 ml Matrigel/nude mouse and were injected subcutaneously. Once the tumor size reached 100-200 mm^3, the animals were randomized and treated orally with the indicated drugs formulated in DMSO:PEG-300 (15:85). HCI-7, HCI-9, and HCI-13 PDXs were gifts kindly donated by Dr. Alana Welm (Huntsman Cancer Institute, Salt Lake City, Utah). HCI PDX tumor fragments (1 mm^3) were surgically implanted under the mammary fat pad in female NOD SCID Gamma (NSG) mice. Tumor volume was measured twice weekly for MCF-7 xenograft and once or twice weekly for HCI PDXs. At the end of the study, animals were sacrificed and tumors were excised, weighed, and stored for various analyses.
To determine if the same effect is observed in an AR-positive, but ER-negative breast cancer, HCI-9 tumor fragments were implanted under the mammary fat pad of NSG mice.

HCI-13 tumor fragments = experiment: HCI-13 ex vivo sponge culture, real time PCR; format: cell-based; details: 3 days
Protocol: (§1) HCI-13 tumors grown in female mice were allowed to reach 500-1000 mm^3 before the animals were sacrificed and the tumors were excised to be used for sponge culture. Patient specimens frozen in liquid nitrogen in freezing medium were used for sponge culture. […] Tumors were sliced into small pieces (˜1 mm^3) and incubated on pre-soaked gelatin sponges (5 fragments/sponge) in 12 well plates containing 1.5 mL medium (MEM+10% FBS+2 mM L-glutamine+10 μg/mL insulin+10 μg/mL hydrocortisone+penicillin:streptomycin). The cultures were performed in triplicates for HCI-13 and singly for patient specimens. Pooled samples (n=5/sponge) from each sponge constituted one sample. Tissues were harvested after 3 days of treatment, RNA extracted, and expression of various genes measured. Although the same procedure was adopted for specimens obtained from breast cancer patients, the specimens were cultured singly (n=5/sponge=one sample) and not in triplicates as performed for HCI-13.

[1] = tested on: breast cancer specimens obtained from patients; experiment: Breast cancer patient specimens, ex vivo sponge culture; format: cell-based, human
Protocol: Specimens from breast cancer patients were collected with patient consent under a protocol approved by the UTHSC Institutional Review Board (IRB). Specimens were collected immediately after surgery in RPMI medium containing penicillin:streptomycin and Fungizone and transported to the laboratory on ice. The tissues were finely minced and treated with collagenase for 2 hours.
as §1
Like other cancers, breast cancer is also heterogeneous in its genomic profile as well as in its response to treatments. […] Three days after treatment, RNA was isolated from the tissues and expression of ER- and AR-target genes was measured.

MR = target: T1, MR (Rattus norvegicus, UniProt P22199); experiment: MR transactivation in HEK-293 cells; format: cell-based
T1 construct: expressed in transfected cells
T1 sequence (P22199 1-981): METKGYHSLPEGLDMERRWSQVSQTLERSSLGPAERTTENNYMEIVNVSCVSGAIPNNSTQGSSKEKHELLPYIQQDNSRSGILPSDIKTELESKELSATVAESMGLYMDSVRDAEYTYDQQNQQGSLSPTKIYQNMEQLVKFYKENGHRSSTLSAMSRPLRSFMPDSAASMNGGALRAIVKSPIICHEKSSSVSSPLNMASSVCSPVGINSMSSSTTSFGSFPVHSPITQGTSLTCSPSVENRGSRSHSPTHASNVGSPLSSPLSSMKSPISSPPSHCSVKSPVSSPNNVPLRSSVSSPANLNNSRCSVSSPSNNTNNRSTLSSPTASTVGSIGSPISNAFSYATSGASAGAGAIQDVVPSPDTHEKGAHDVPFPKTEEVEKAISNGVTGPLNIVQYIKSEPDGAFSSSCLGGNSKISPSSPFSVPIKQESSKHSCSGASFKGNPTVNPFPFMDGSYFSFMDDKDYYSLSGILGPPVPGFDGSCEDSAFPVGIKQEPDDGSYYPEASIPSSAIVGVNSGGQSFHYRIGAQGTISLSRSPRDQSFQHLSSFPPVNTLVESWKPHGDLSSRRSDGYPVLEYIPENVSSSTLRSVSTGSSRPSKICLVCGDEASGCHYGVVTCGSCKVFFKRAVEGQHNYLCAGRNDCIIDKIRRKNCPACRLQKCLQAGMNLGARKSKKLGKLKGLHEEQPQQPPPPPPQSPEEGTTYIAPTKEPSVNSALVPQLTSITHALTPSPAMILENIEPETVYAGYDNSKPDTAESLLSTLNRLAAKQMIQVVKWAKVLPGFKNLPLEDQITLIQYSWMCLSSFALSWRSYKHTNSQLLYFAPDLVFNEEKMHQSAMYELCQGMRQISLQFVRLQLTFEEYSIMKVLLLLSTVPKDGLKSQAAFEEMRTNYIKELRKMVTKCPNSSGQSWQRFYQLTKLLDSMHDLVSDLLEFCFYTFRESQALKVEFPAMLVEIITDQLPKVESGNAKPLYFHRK
Protocol: Rat GR, MR, PR, ER-α and ER-β were individually cloned into a pCR3.1 vector backbone. Sequencing was performed to verify the absence of any mutations. HEK-293 cells were plated at 90,000 cells per well of a 24 well plate in Dulbecco's Minimal Essential Media supplemented with 5% charcoal-stripped FBS. […] Luciferase assays were performed 48 h after transfection. Transcriptional activation values are represented as firefly luciferase normalized to renilla luciferase.

Row | SMILES | tumor growth trajectory (HCI-9 PDX) | inhibition of ER-induced pS2 and PR gene expression (HCI-13 tumor fragments; 10 nM DHT, 1 μM Formula IX, 100 nM fulvestrant) | AR-target gene FKBP5 expression (HCI-13 tumor fragments) | MKI67 expression (HCI-13 tumor fragments) | specimens in which AR agonist activity was observed ([1]; 1 μM) | specimens in which ER function was inhibited ([1]; 1 μM Formula IX, 100 nM fulvestrant, 3 days) | MR-mediated transactivation, agonist mode (MR; all tested concentrations) | aldosterone-induced MR-mediated transactivation, antagonist mode (MR; co-incubation)
1 | C[C@](O)(COc1ccc(C#N)cc1)C(=O)Nc1ccc(C#N)c(C(F)(F)F)c1 [Formula IX, (S)—N-(4-Cyano-3-(trifluoromethyl)phenyl)-3-(4-cyanophenoxy)-2-hydroxy-2-methylpropanamide] | Neither Formula IX nor enzalutamide altered the growth trajectory | effective | induced | inhibited | 4 of 8 | 3 of 8 |  | 
2 | C[C@](O)(COc1ccc(C#N)cc1)C(=O)Nc1ccc(C#N)c(Cl)c1 [Formula VIII, (S)—N-(3-chloro-4-cyanophenyl)-3-(4-cyanophenoxy)-2-hydroxy-2-methylpropanamide] |  |  |  |  |  |  | did not induce | failed to alter
